Columns and labels:
Format in all cases: biochemical
Aurora A kinase = molecular target: T1, Aurora A kinase (Homo sapiens, UniProt O14965); test: Aurora A kinase assay ([γ-33P]ATP, CHOCKtide substrate); settings: for inhibition at 1 µM: 1.0 μM test compound
T1 construct: purchased Upstate
T1 sequence (O14965 1-403): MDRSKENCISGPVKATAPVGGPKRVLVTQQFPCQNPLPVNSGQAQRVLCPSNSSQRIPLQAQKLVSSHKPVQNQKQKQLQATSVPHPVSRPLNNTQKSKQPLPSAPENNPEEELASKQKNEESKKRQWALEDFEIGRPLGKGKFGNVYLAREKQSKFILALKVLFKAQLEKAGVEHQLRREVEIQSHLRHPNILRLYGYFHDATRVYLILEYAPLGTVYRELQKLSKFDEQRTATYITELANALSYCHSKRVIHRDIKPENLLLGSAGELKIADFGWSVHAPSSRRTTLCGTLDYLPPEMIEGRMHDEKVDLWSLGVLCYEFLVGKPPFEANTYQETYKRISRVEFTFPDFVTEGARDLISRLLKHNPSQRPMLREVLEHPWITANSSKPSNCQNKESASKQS
Experimental: (§1) Inhibition of Aurora Kinase by the compounds disclosed herein was determined by incubating Aurora kinase, substrate, and a test compound together for a period of time followed by quantifying the resultant phosphorylated product. Specifically, in a well of a 96-well round bottom plate, 25 μL of a reaction mixture containing (1) a test compound disclosed herein (diluted from 9 μM to the desired final concentration), [γ-33P]ATP/ATP mix (10 μM), CHOCKtide (1 μg, Genesis Biotech Inc.), and Aurora-A (1 ng, purchased from Upstate); or (2) a test compound disclosed herein (diluted from 9 μM to the desired final concentration), [γ-33P]ATP/ATP mix (40 μM), CHOCKtide (1 μg, Genesis Biotech Inc.), and Aurora-B (2.5 ng, purchased from Cell signaling); was prepared and incubated at 33° C. for 30 minutes. The reaction was then stopped by adding 5 μL of 3% phosphoric acid. The resultant solution (30 μL) was later harvested by a UniFilter Plate GF/B (PerkinElmer) followed by adding 30 μL of the scintillation cocktail (MicroScint 20, PerkinElmer) to the well. The radioactivity retained on the filter membrane was measured by a luminescence counter (PerkinElmer). IC50 value is defined as the concentration of the test compound which achieves a half-maximal inhibition of the kinase activity.

c-Met kinase = molecular target: T2, c-Met kinase (Homo sapiens, UniProt P08581); test: c-Met kinase assay (33P incorporation into Poly(Glu-Tyr)); settings: 500 nM test compound
T2 construct: recombinant N-terminal 6×His-tagged c-Met kinase domain construct expressed from baculovirus; 6xHis (N); made in house
T2 sequence (P08581 1078-1345 limits assumed): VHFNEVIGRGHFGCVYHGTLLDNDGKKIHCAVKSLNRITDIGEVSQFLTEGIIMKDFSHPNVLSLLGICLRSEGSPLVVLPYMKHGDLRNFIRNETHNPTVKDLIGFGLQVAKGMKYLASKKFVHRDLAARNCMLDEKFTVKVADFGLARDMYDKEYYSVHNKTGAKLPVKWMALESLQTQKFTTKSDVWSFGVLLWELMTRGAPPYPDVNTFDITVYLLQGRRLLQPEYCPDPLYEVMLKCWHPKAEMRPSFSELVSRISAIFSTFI
Experimental: Inhibition of c-Met kinase activity by compounds disclosed herein was quantified by measuring the amount of [^33P] incorporated into the substrate in the presence of a test compound. Briefly, a reaction mixture of 25 μL final volume containing 5 ng of c-Met kinase (obtained by purifying recombinant N-terminal 6×His-tagged c-Met kinase domain construct expressed from baculovirus), 1 μg of the substrate (Poly (Glu-Tyr, 4:1, Sigma)), kinase reaction buffer (20 mM MOPS pH 7.0, 1 mM EDTA, 5% glycerol, 0.01% Brij-35, 0.1% β-mercaptoethanol, 1 mg/mL BSA, 100 μM ATP, 0.1 μCi per well [^33P]-γ-ATP (2,500-3,000 Ci/mmol)), and a test compound (500 nM, diluted with 4% DMSO) or DMSO (as the control) was incubated at 30° C. for 30 minutes. The reaction was stopped by adding 5 μL of 3% phosphoric acid solution. The resultant reaction solution was then harvested onto a filter plate (UniFilter-96 GF/B, PerkinElmer), washed 20 times for 5 min with d.d. H2O, and followed by the addition of 30 μL of MicroScint™-20 Cocktail (PerkinElmer). The plate was then sealed and counted using a TopCount scintillation detector (PerkinElmer). The percentage of inhibition rate of the test compound was calculated by dividing the retained radioactivity of the test sample with the retained radioactivity of the control sample and shown in Table 3.

Aurora B kinase = molecular target: T3, Aurora B kinase (Homo sapiens, UniProt Q96GD4); test: Aurora B kinase assay ([γ-33P]ATP, CHOCKtide substrate); settings: for inhibition at 1 µM: 1.0 μM test compound
T3 construct: purchased Cell signaling
T3 sequence (Q96GD4 whole entry): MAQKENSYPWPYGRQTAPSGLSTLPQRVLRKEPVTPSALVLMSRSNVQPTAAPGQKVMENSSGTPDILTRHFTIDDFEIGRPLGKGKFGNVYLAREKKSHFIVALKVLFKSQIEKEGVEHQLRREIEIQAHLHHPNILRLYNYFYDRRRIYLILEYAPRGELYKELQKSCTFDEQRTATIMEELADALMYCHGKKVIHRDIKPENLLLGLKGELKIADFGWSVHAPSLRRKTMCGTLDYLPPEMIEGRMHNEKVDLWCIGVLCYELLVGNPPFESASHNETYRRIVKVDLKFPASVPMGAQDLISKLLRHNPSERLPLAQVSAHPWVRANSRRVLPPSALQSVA
Experimental: as §1

| SMILES | inhibition at 1 µM (Aurora A kinase) | inhibition at 0.5 µM (c-Met kinase) | inhibition at 1 µM (Aurora B kinase) | IC50 (Aurora A kinase) | IC50 (Aurora B kinase) |
| --- | --- | --- | --- | --- | --- |
| CCOC(=O)CCc1c(/C=C2\C(=O)Nc3ccc(OC)cc32)[nH]c2c1C(=O)CCCC2 [DCB-70154, (Z)-ethyl 3-(2-((5-methoxy-2-oxoindolin-3-ylidene)methyl)-4-oxo-1,4,5,6,7,8-hexahydrocyclohepta[b]pyrrol-3-yl)propanoate] | -0.3% | 47.9% | 2.8% |  |  |
| CC(=O)c1c(C)[nH]c(/C=C2\C(=O)Nc3ccc(NS(=O)(=O)c4ccccc4)cc32)c1CCC(=O)N1CCN(C)CC1 [DCB-70219, (Z)-N-(3-((4-acetyl-5-methyl-3-(3-(4-methylpiperazin-1-yl)-3-oxopropyl)-1H-pyrrol-2-yl)methylene)-2-oxoindolin-5-yl)benzenesulfonamide] | 25.7% | 17.7% | 14.8% |  |  |
| CCN(CC)CCNC(=O)CCc1c(/C=C2\C(=O)Nc3ccc(S(=O)(=O)N4CCc5ccccc54)cc32)[nH]c(C)c1C(C)=O [DCB-70214, (Z)-3-(4-acetyl-2-((5-(indolin-1-ylsulfonyl)-2-oxoindolin-3-ylidene)methyl)-5-methyl-1H-pyrrol-3-yl)-N-(2-(diethylamino)ethyl)propanamide] | 15.4% | 56.3% | 14.8% |  |  |
| CCCCCCC#Cc1ccc2c(c1)/C(=C/c1[nH]c3c(c1CCC(=O)OCC)C(=O)CCC3)C(=O)N2 [DCB-70172, (Z)-ethyl 3-(2-((5-(oct-1-ynyl)-2-oxoindolin-3-ylidene)methyl)-4-oxo-4,5,6,7-tetrahydro-1H-indol-3-yl)propanoate] | -3.1% | 10.4% | -3.2% |  |  |
| Nc1ccccc1NC(=O)CCc1c(/C=C2\C(=O)Nc3ccc(NS(=O)(=O)c4ccccc4)cc32)[nH]c2c1C(=O)CCC2 [DCB-70186, (Z)-N-(2-aminophenyl)-3-(4-oxo-2-((2-oxo-5-(phenylsulfonamido)indolin-3-ylidene)methyl)-4,5,6,7-tetrahydro-1H-indol-3-yl)propanamide] | 66.1% | 9.6% | 47.4% |  |  |
| CCOC(=O)CCc1c(/C=C2\C(=O)Nc3ccc(NCc4ccc(OC)cc4)cc32)[nH]c2c1C(=O)CCC2 [DCB-70175, (Z)-ethyl 3-(2-((5-(4-methoxybenzylamino)-2-oxoindolin-3-ylidene)methyl)-4-oxo-4,5,6,7-tetrahydro-1H-indol-3-yl)propanoate] | 30.7% | 17.3% | 8.4% |  |  |
| CC(=O)c1c(C)[nH]c(/C=C2\C(=O)Nc3ccc(F)cc32)c1CCC(=O)N1CCN(C)CC1 [DCB-70207, (Z)-3-((4-acetyl-5-methyl-3-(3-(4-methylpiperazin-1-yl)-3-oxopropyl)-1H-pyrrol-2-yl)methylene)-5-fluoroindolin-2-one] | 10.3% | 21.1% | 6.8% |  |  |
| CN1CCN(C(=O)CCc2c(/C=C3\C(=O)Nc4ccc(NS(=O)(=O)c5ccccc5)cc43)[nH]c3c2C(=O)CCC3)CC1 [DCB-70218, (Z)-N-(3-((3-(3-(4-methylpiperazin-1-yl)-3-oxopropyl)-4-oxo-4,5,6,7-tetrahydro-1H-indol-2-yl)methylene)-2-oxoindolin-5-yl)benzenesulfonamide] | 62% | 9.2% | 54.2% | 823 nM |  |
| O=C(O)CCc1c(/C=C2\C(=O)Nc3ccc(NS(=O)(=O)c4cc(F)cc(F)c4)cc32)[nH]c2c1C(=O)CCC2 [DCB-70190, (Z)-3-(2-((5-(3,5-difluorophenylsulfonamido)-2-oxoindolin-3-ylidene)methyl)-4-oxo-4,5,6,7-tetrahydro-1H-indol-3-yl)propanoic acid] | 97% | 10% | 80% | 31.5 nM | 246 nM |
| CCCCCCC#Cc1ccc2c(c1)NC(=O)/C2=C\c1[nH]c2c(c1CCC(=O)OCC)C(=O)CCC2 [DCB-70170, (Z)-ethyl 3-(2-((6-(oct-1-ynyl)-2-oxoindolin-3-ylidene)methyl)-4-oxo-4,5,6,7-tetrahydro-1H-indol-3-yl)propanoate] | 10.5% | 13.1% | 2.8% |  |  |
| CC(=O)c1c(C)[nH]c(/C=C2\C(=O)Nc3ccc(S(=O)(=O)Cc4c(Cl)cccc4Cl)cc32)c1CCC(=O)N1CCN(C)CC1 [DCB-70205, (Z)-3-((4-acetyl-5-methyl-3-(3-(4-methylpiperazin-1-yl)-3-oxopropyl)-1H-pyrrol-2-yl)methylene)-5-(2,6-dichlorobenzylsulfonyl)indolin-2-one] | 11.3% | 97% | 2.4% |  |  |
| CCOC(=O)CCc1c(/C=C2\C(=O)Nc3ccc(OC)cc32)[nH]c2c1C(=O)CCC2 [DCB-70166, (Z)-ethyl 3-(2-((5-methoxy-2-oxoindolin-3-ylidene)methyl)-4-oxo-4,5,6,7-tetrahydro-1H-indol-3-yl)propanoate] | 48.8% | 21.6% | 13% |  |  |
| O=C(O)CCc1c(/C=C2\C(=O)Nc3ccc(NS(=O)(=O)Cc4ccccc4)cc32)[nH]c2c1C(=O)CCC2 [DCB-70198, (Z)-3-(4-oxo-2-((2-oxo-5-(phenylmethylsulfonamido)indolin-3-ylidene)methyl)-4,5,6,7-tetrahydro-1H-indol-3-yl)propanoic acid] | 96.1% | 20.2% | 69.8% | 62.8 nM | 402 nM |
| CCOC(=O)CCc1c(/C=C2\C(=O)Nc3ccc(NS(=O)(=O)c4ccc5ccccc5c4)cc32)[nH]c2c1C(=O)CCC2 [DCB-70191, (Z)-ethyl 3-(2-((5-(naphthalene-2-sulfonamido)-2-oxoindolin-3-ylidene)methyl)-4-oxo-4,5,6,7-tetrahydro-1H-indol-3-yl)propanoate] | 20.4% | 19% | 21.2% |  |  |
| CCOC(=O)CCc1c(/C=C2\C(=O)Nc3ccc(S(=O)(=O)N4CCc5ccccc54)cc32)[nH]c2c1C(=O)CCC2 [DCB-70210, (Z)-ethyl 3-(2-((5-(indolin-1-ylsulfonyl)-2-oxoindolin-3-ylidene)methyl)-4-oxo-4,5,6,7-tetrahydro-1H-indol-3-yl)propanoate] | 74.6% | 75.3% | 45.5% | 100 nM |  |
| CC1(C)CC(=O)c2c([nH]c(/C=C3\C(=O)Nc4ccc(NS(=O)(=O)c5ccccc5)cc43)c2CCC(=O)O)C1 [DCB-70169, (Z)-3-(6,6-dimethyl-4-oxo-2-((2-oxo-5-(phenylsulfonamido)indolin-3-ylidene)methyl)-4,5,6,7-tetrahydro-1H-indol-3-yl)propanoic acid] | 79.6% | 10.8% | 31% |  |  |
| CCOC(=O)CCc1c(/C=C2\C(=O)Nc3ccc(/N=C/c4ccsc4)cc32)[nH]c2c1C(=O)CCC2 [DCB-70180, ethyl 3-(4-oxo-2-((Z)-(2-oxo-5-((E)-thiophen-3-ylmethyleneamino)indolin-3-ylidene)methyl)-4,5,6,7-tetrahydro-1H-indol-3-yl)propanoate] | 71.5% | 5.1% | 47.4% |  | 866 nM |
